Literature values, collected in patent US20080237028A1, “Nucleation in liquid, methods of use thereof and methods of generation thereof” (Hanoch KISLEV, priority 2006, published 2008).
In brackets after ≈: the same amount, converted by molar mass.

Key:
[1] = system: β-lactamase negative strain of Klebsiella pneumoniae; settings: planktonic
[2] = system: β-lactamase negative strain of Klebsiella pneumoniae grown as a biofilm
[3] = system: biofilms of wild-type Pseudomonas aeruginosa; settings: compared to equivalent bacteria lacking ability to generate biofilm
[4] = system: biofilm forming P. aeroginosa bacteria; settings: mature biofilm grown from bacteria treated with quorum sensing molecules; not in the untreated sample

CC1(C)S[C@@H]2[C@H](NC(=O)[C@H](N)c3ccccc3)C(=O)N2[C@H]1C(=O)O [Ampicillin]
minimum inhibitory concentration (MIC) [1]: 2 µg/mL (≈ 5.72 µM) | increase in MIC ([2]; biofilm versus planktonic, 5000 μg/mL): 2500 fold | survival of biofilm under treatment ([2]; treated for 4 hours with 5000 μg/mL ampicillin): survives well

OCl [sodium hypochlorite]
concentration increase required to kill biofilms [3]: 600 fold

NC[C@H]1O[C@H](O[C@H]2[C@H](O)[C@@H](O[C@H]3O[C@H](CO)[C@@H](O)[C@H](N)[C@H]3O)[C@H](N)C[C@@H]2N)[C@H](N)C[C@@H]1O [tobramicyn]
bacteria death within biofilm [4]: complete bacteria death
